In the supplement of paper PMC10627819:

Legend:
S. pneumoniae D39V [1] = test: fitness (endpoint OD595 vs no drug) (fraction); higher = more growth
Summary of the method: (§1)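 At 37 °C, bacteria in TSB, LB Lennox or CY were grown in 384-well plates from a starting OD595 of 0.01. OD595 was measured every 30 min for 14 h, with the first reading used as background. Fitness is the optical density at the switch to stationary phase as a fraction of the robust mean of no-drug control wells, capped at 1.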

B. subtilis 168 [2] = test: as above
Summary of the method: as §1

S. aureus DSM 20231 [3] = test: as above
Summary of the method: as §1

S. aureus Newman [4] = test: as above
Summary of the method: as §1

S. pneumoniae D39V [5] = test: Bliss interaction score (quartile over a dose matrix) (fitness difference); higher = more antagonism (negative = synergy)
Summary of the method: (§2)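 Fitness is OD595 at stationary-phase entry relative to the plate's robust no-drug mean, capped at 1. Single-drug fitness was inferred from combinations. The Bliss score is observed minus product-expected fitness, summarised by quartiles over technical, biological and donor/recipient replicates.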

B. subtilis 168 [6] = test: as above
Summary of the method: as §2

S. aureus DSM 20231 [7] = test: as above
Summary of the method: as §2

S. aureus Newman [8] = test: as above
Summary of the method: as §2
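Wherever Bliss interaction score (quartile over a dose matrix) is given: first quartile when negative (synergy) and third quartile when positive (antagonism).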

CCCCCCCCCC(=O)N[C@@H](Cc1c[nH]c2ccccc12)C(=O)N[C@H](CC(N)=O)C(=O)N[C@@H](CC(=O)O)C(=O)N[C@@H]1C(=O)NCC(=O)N[C@@H](CCCN)C(=O)N[C@@H](CC(=O)O)C(=O)N[C@H](C)C(=O)N[C@@H](CC(=O)O)C(=O)NCC(=O)N[C@H](CO)C(=O)N[C@@H]([C@H](C)CC(=O)O)C(=O)N[C@@H](CC(=O)c2ccccc2N)C(=O)O[C@@H]1C [Daptomycin] + Cc1ncc([N+](=O)[O-])n1CCO [Metronidazole]
fitness
Conditions	partner 0.625 µg/mL	partner 1.073 µg/mL	partner 1.25 µg/mL	partner 2.145 µg/mL	partner 2.5 µg/mL	partner 4.29 µg/mL	partner 5 µg/mL
B. subtilis 168 [2], first compound 0.125 µg/mL	0.942	–	0.892	–	0.93	–	–
B. subtilis 168 [2], first compound 0.25 µg/mL	0.899	–	0.966	–	0.944	–	–
B. subtilis 168 [2], first compound 0.5 µg/mL	0.935	–	0.904	–	0.874	–	–
S. aureus DSM 20231 [3], first compound 0.125 µg/mL	0.924	–	≥ 1	–	0.983	–	–
S. aureus DSM 20231 [3], first compound 0.25 µg/mL	0.932	–	≥ 1	–	≥ 1	–	–
S. aureus DSM 20231 [3], first compound 0.5 µg/mL	≥ 1	–	≥ 1	–	≥ 1	–	–
S. aureus DSM 20231 [3], first compound 1 µg/mL	≥ 1	–	≥ 1	–	≥ 1	–	–
S. aureus DSM 20231 [3], first compound 2 µg/mL	≥ 1	–	≥ 1	–	≥ 1	–	–
S. aureus Newman [4], first compound 0.125 µg/mL	0.935	–	≥ 1	–	0.982	–	–
S. aureus Newman [4], first compound 0.25 µg/mL	0.951	–	≥ 1	–	0.994	–	–
S. aureus Newman [4], first compound 0.5 µg/mL	≥ 1	–	≥ 1	–	0.975	–	–
S. pneumoniae D39V [1], first compound 1 µg/mL	–	0.846	0.977	0.786	≥ 1	0.777	0.993
S. pneumoniae D39V [1], first compound 2 µg/mL	–	0.9	0.985	0.876	≥ 1	0.87	≥ 1
S. pneumoniae D39V [1], first compound 4 µg/mL	–	0.949	0.93	0.888	0.97	0.928	0.976

fitness, one replicate
Conditions	partner 0.625 µg/mL	partner 0.781 µg/mL	partner 1.25 µg/mL	partner 1.562 µg/mL	partner 2.5 µg/mL	partner 3.124 µg/mL
B. subtilis 168 [2], first compound 1 µg/mL	0.736	–	0.806	–	0.754	–
S. aureus Newman [4], first compound 0.125 µg/mL	–	≥ 1	–	≥ 1	–	≥ 1
S. aureus Newman [4], first compound 0.25 µg/mL	–	≥ 1	–	≥ 1	–	≥ 1
S. aureus Newman [4], first compound 0.5 µg/mL	–	≥ 1	–	≥ 1	–	≥ 1

Conditions	Bliss interaction score
B. subtilis 168 [6]	-0.0566
S. aureus DSM 20231 [7]	0.0276
S. aureus Newman [8]	0.0422
S. pneumoniae D39V [5]	0.0723

CCCCCCCCCC(=O)N[C@@H](Cc1c[nH]c2ccccc12)C(=O)N[C@H](CC(N)=O)C(=O)N[C@@H](CC(=O)O)C(=O)N[C@@H]1C(=O)NCC(=O)N[C@@H](CCCN)C(=O)N[C@@H](CC(=O)O)C(=O)N[C@H](C)C(=O)N[C@@H](CC(=O)O)C(=O)NCC(=O)N[C@H](CO)C(=O)N[C@@H]([C@H](C)CC(=O)O)C(=O)N[C@@H](CC(=O)c2ccccc2N)C(=O)O[C@@H]1C [Daptomycin] + Cc1onc(-c2ccccc2)c1C(=O)N[C@@H]1C(=O)N2[C@@H]1SC(C)(C)[C@@H]2C(=O)O [Oxacillin]
fitness
Conditions	first compound 0.125 µg/mL	first compound 0.25 µg/mL	first compound 0.5 µg/mL	first compound 1 µg/mL	first compound 2 µg/mL	first compound 4 µg/mL
B. subtilis 168 [2], partner 0.002 µg/mL	0.979	0.99	0.938	–	–	–
B. subtilis 168 [2], partner 0.004 µg/mL	0.996	0.959	0.877	–	–	–
B. subtilis 168 [2], partner 0.008 µg/mL	0.899	0.921	0.856	–	–	–
S. aureus DSM 20231 [3], partner 0.0156 µg/mL	–	–	0.864	0.889	0.794	–
S. aureus DSM 20231 [3], partner 0.0312 µg/mL	–	–	0.768	0.716	0.721	–
S. aureus DSM 20231 [3], partner 0.0625 µg/mL	–	–	0.502	0.501	0.537	–
S. aureus Newman [4], partner 0.0156 µg/mL	0.863	0.82	0.785	–	–	–
S. aureus Newman [4], partner 0.0312 µg/mL	0.752	0.751	0.768	–	–	–
S. aureus Newman [4], partner 0.0625 µg/mL	0.656	0.664	0.674	–	–	–
S. pneumoniae D39V [1], partner 0.005 µg/mL	–	–	–	≥ 1	0.999	0.949
S. pneumoniae D39V [1], partner 0.01 µg/mL	–	–	–	0.951	0.97	0.956
S. pneumoniae D39V [1], partner 0.02 µg/mL	–	–	–	0.904	0.908	0.895
S. pneumoniae D39V [1], partner 0.04 µg/mL	–	–	–	0.377	0.382	0.505

fitness, one replicate
Conditions	first compound 0.125 µg/mL	first compound 0.25 µg/mL	first compound 0.5 µg/mL	first compound 1 µg/mL
B. subtilis 168 [2], partner 0.0078 µg/mL	–	0.878	0.894	0.662
B. subtilis 168 [2], partner 0.0155 µg/mL	–	0.975	0.87	0.657
B. subtilis 168 [2], partner 0.031 µg/mL	–	0.888	0.832	0.302
B. subtilis 168 [2], partner 0.075 µg/mL	0.618	0.686	0.395	–
B. subtilis 168 [2], partner 0.15 µg/mL	0.0439	0.032	0.0273	–
B. subtilis 168 [2], partner 0.3 µg/mL	0.0398	0.0692	0.0429	–
S. aureus DSM 20231 [3], partner 0.0156 µg/mL	0.728	0.737	–	–
S. aureus DSM 20231 [3], partner 0.0312 µg/mL	0.677	0.722	–	–
S. aureus DSM 20231 [3], partner 0.0625 µg/mL	0.531	0.515	–	–

Conditions	Bliss interaction score
B. subtilis 168 [6]	0.0697
S. aureus DSM 20231 [7]	-0.0408
S. aureus Newman [8]	0.0785
S. pneumoniae D39V [5]	0.0877
